In brackets after ≈: the same amount, converted by molar mass. Read-outs that look alike come from different tables or passages of the source.
What was measured:
[1] = tested on: RAT2 fibroblast cell line; experiment: Cytotoxicity on proliferating cells, crystal violet assay, OD590; type: cell-based; conditions: 24 h treatment, read-out: EC50 ± SEM RAT2
Experimental: (§1) MDCK and RAT cells were cultured in DMEM with 10% FBS at 37 °C in a 5% CO2 atmosphere as described previously. , To assess the toxic effects of the compounds on proliferating cells, cells were seeded in 24-well plates for 24 h to reach ∼15% confluence, and cells were treated in triplicate with increasing concentrations of the isolated compounds for an additional 24 h. Cells were washed with 1× PBS, fixed in staining solution (0.5% crystal violet, 20% methanol) for 10 min, and gently washed five times in 1× PBS. The fixed cells were then dissolved in lysis solution (0.1 M sodium citrate, 25% ethanol, pH 4.2) for 30 min, transferred to a 96-well plate in H2O, and the OD^590 was determined. EC50 values were determined using GraphPad Prism software and the dose–response fit equation. The EC50 values were determined from two independent experiments. Additionally, the impact of the isolated substances on the morphology of the HeLa adenocarcinoma cell line and primary human skin fibroblasts was examined by using fluorescence microscopy. Cells were cultured in DME medium supplemented with 10% FCS (Gibco, Invitrogen, Carlsbad, USA) on glass coverslips in 24-well plates until reaching approximately 50% confluence. The cells were treated with varying concentrations of isolated compounds dissolved in DMSO. Wells containing DMEM with DMSO served as the negative control. After 24 h cultivation, the cells were incubated with MitoTracker Red CMXRos (10 min) to label mitochondria, then fixed with 3.7% paraformaldehyde in PBS (20 min, room temperature), permeabilized with 0.1% Triton X-100 in PBS, and blocked with 1% BSA in PBS. The cells were then stained with Phalloidin-Alexa Fluor488 conjugate. All fluorescence reagents were purchased from Molecular Probes, Invitrogen, Carlsbad, CA, USA. Nuclei were stained with Fluoroshield DAPI (Sigma-Aldrich), and cells were examined using an IX71 microscope equipped with a DP70 camera and a 40× objective. Assays were performed at concentrations of 5, 25, 50, 100, and 125 μM.

[2] = tested on: Madin–Darby canine kidney (MDCK) epithelial cell line; experiment: as above; type: cell-based; conditions: Canis lupus familiaris, 24 h treatment, read-out: EC50 ± SEM MDCK
Experimental: as §1

[3] = tested on: Trypanosoma congolense IL3000; experiment: Anti-trypanosomal activity, resazurin (AB assay), bloodstream form; type: cell-based; conditions: 72 h, axenic, 48 h + 24 h resazurin, read-out: EC50 T. congolense
Experimental: (§2) The bloodstream forms of T. b. gambiense LiTat 1.3, T. b. brucei 427, and T. b. evansi AnTat 3/3 were grown in HMI-11 medium pH 7.3 supplemented with 36 mM sodium bicarbonate, 100 U/mL penicillin/streptomycin, and 10% fetal bovine serum at 37 °C and 5% CO2. The bloodstream form of Trypanosoma congolense IL3000 (generous gift from Liam Morrison) was cultured in TcBSF-1 medium pH 7.3 supplemented with 26 mM sodium bicarbonate, 25 mM HEPES, 5.5 mM glucose, 1 mM sodium pyruvate, 0.04 mM adenosine, 0.1 mM hypoxanthine, 0.02 mM thymidine, 0.02 mM bathocuproine, 2 mM L-glutamine, 0.2 mM 2-mercaptoethanol, 100 U/ml penicillin/streptomycin, and 20% goat serum New Zealand origin (Gibco) at 34 °C, 5% CO2. The assay for anti-trypanosomal activity was performed using the resazurin sodium salt dye (AB Assay) according to the published protocol in a 96-well plate format. Parasites at a number of 5 × 10^3 per well (T. b. brucei and T. b. gambiense) or 1 × 10^4 per well (T. b. evansi) were incubated with different drug concentrations (2-fold serial dilutions) in a volume of 200 μL of the medium. Medium with 1% DMSO (the highest concentration of the solvent used in the assay) was used to confirm no effect of the solvent on the cell growth. The plates were incubated for 48 h at the appropriate temperature. Then, 20 μL of resazurin sodium salt solution (0.125 mg/mL in 1× PBS, pH 7. 4) was added to each well, and the cells were incubated for another 24 h under the same conditions. The fluorescence signal was quantified using a Tecan Infinite M200 plate reader at excitation and emission wavelengths of 560 and 590 nm, respectively. The EC50 values were calculated using GraphPad Prism 9.5.1 by nonlinear regression with a variable slope. Each EC50 value is the mean ± standard error of the mean of three separate experiments performed in duplicate.

K. rhizophila ATCC 9341 = experiment: Minimum inhibitory concentration (MIC) testing, serial binary dilution in 96-well plates; type: cell-based; conditions: Kocuria rhizophila, ATCC9341; 24 h in the dark; lowest concentration with no live microorganisms
Experimental: (§3) Minimum inhibitory concentration (MIC) testing of the extracts was performed using 96-well polypropylene plates against four different microorganisms: the Gram-positive bacterium K. rhizophila ATCC 9341, the Gram-negative bacterium E. coli ATCC 3988, and the yeasts C. albicans CCM 8215 and C. neoformans CCF 1081.
(§4) A working inoculum of each microorganism was prepared as follows: for E. coli and K. rhizophila, the inoculum was grown in LB medium (LB Broth, 25 g/L, incubated at 36 °C); for C. albicans and C. neoformans, YM6.3 medium (maltose extract 10 g, glucose 4 g, yeast extract 4 g per 1 L distilled water, incubated at 24 °C) with a cell concentration of approximately 5 × 10^5 cells/mL for all microorganisms was used.
(§5) Chloramphenicol served as a positive control for bacteria, while cycloheximide was used as a positive control for fungi. The gradient of the test substances was established by serial binary dilution across the wells. The MIC was determined by identifying the lowest concentration at which no live microorganisms were present. Cultivation was performed in the dark for 24 h.

C. albicans CCM 8215 = experiment: as above; type: cell-based; conditions: Candida albicans, CCM8215; 24 h in the dark; n.d. = activity not detected; highest tested concentration 66.7 μM
Experimental: as §3, §4, §5

E. coli ATCC 3988 = experiment: as above; type: cell-based; conditions: Escherichia coli, ATCC3988; 24 h in the dark; lowest concentration with no live microorganisms
Experimental: as §3, §4, §5

C. neoformans CCF 1081 = experiment: as above; type: cell-based; conditions: Cryptococcus neoformans, CCF1081; 24 h in the dark; n.d. = activity not detected; highest tested concentration 66.7 μM
Experimental: as §3, §4, §5

T. b. evansi AnTat 3/3 = experiment: Anti-trypanosomal activity, resazurin (AB assay), bloodstream form; type: cell-based, T. brucei evansi; conditions: Trypanosoma brucei, 72 h, axenic, 48 h + 24 h resazurin
Experimental: as §2

SMILES	EC50 ([1]; Rat2, 24 h) [nM]	EC50 [2] [nM]	EC50 [3] [nM]	MIC (K. rhizophila ATCC 9341) [µM]	MIC (C. albicans CCM 8215) [µM]	MIC (E. coli ATCC 3988) [µM]	MIC (C. neoformans CCF 1081) [µM]	EC50 (T. b. evansi AnTat 3/3) [nM]	EC50 [1] [nM]
COc1cc(O)c2c(c1)C(=O)C1=C(C2=O)[C@H](O)[C@@H](O)[C@@H](C)O1 (relative stereo) [Compound 3, (2R,3R,4S)-3,4,6-trihydroxy-8-methoxy-2-methyl-3,4-dihydro-2H-benzo[g]chromene-5,10-dione]	5100 ± 700	4700 ± 600	5800	8.3 (≈ 2.54 µg/mL)	> 66.7	2.1 (≈ 0.643 µg/mL)	> 66.7	4200	
COc1cc(O)c2c(c1)C(=O)C1=C(C2=O)[C@@H](O)[C@@H](OC(C)=O)[C@@H](C)O1 [Compound 5, (2R,3R,4R)-4,6-dihydroxy-8-methoxy-2-methyl-5,10-dioxo-3,4,5,10-tetrahydro-2H-benzo[g]chromen-3-yl acetate]	30	100	20	2.1	66.7	1	33.3	40	
COc1cc(O)c2c(c1)C(=O)C1=C(C2=O)[C@@H](OC(C)=O)[C@@H](O)[C@@H](C)O1 [Compound 1, (2R,3S,4R)-3,6-dihydroxy-8-methoxy-2-methyl-5,10-dioxo-3,4,5,10-tetrahydro-2H-benzo[g]chromen-4-yl acetate]	100	100	20	1	33.3	1	33.3	30	60
COc1cc(O)c2c(c1)C(=O)C1=C(C[C@@H](OC(C)=O)[C@@H](C)O1)C2=O [Compound 7, (2R,3R)-6-hydroxy-8-methoxy-2-methyl-5,10-dioxo-3,4,5,10-tetrahydro-2H-benzo[g]chromen-3-yl acetate]	6000 ± 300	5600 ± 1100	2400	4.2	33.3	4.2	33.3	700	
